Three compounds from patent US9968592B2, “Dyslipidemia therapeutic agent” (KOWA COMPANY, LTD., priority 2014, dated 2018) can be followed below.

The test system of the test is Male hamsters (Slc:Syrian). Kind of test: Effect on LDL-C of hamster, oral administration once per day for two weeks. Format: in vivo. The note with it: single administration, vs control (Dunnett). The text has this:
Male hamsters (6-week-old, Slc:Syrian, Japan SLC, Inc.) were used for an experiment. Blood was collected from the jugular vein under satiation. The hamsters were divided into six groups (N=8) based on TG and TC in plasma and a body weight. For two weeks from the next day, each of a solvent (0.5% methylcellulose aqueous solution: MC), compound A alone, compound B alone, and combination of compound A and compound B was orally administered once per day. For comparison, for two weeks, each of compound C alone and combination of compound A and compound C was orally administered once per day. On the final day of administration of the pharmaceutical agent, blood was collected under fasting conditions for four hours and under isoflurane anesthesia, and LDL-C in plasma was measured using high performance liquid chromatography by a method of Usui et • a1. (Usui S et al. Clin Chem., 46, 63-72, 2000).
Group 2: 0.3 mg/kg of compound A
Group 3: 10 mg/kg of compound B
Group 4: 0.3 mg/kg of compound A and 10 mg/kg of compound B
Group 5: 10 mg/kg of compound C
Group 6: 0.3 mg/kg of compound A and 10 mg/kg of compound C
Results were presented by an average value±standard deviation. Comparison between the control group and each of the pharmaceutical agent administration groups was performed by a multiple comparison test of Dunnett, and a risk rate of less than 5% was determined to have a significant difference.

Setting [1] is: 10 mg/kg orally once per day for two weeks.

`CC[C@@H](Oc1cccc(CN(CCCOc2ccc(OC)cc2)c2nc3ccccc3o2)c1)C(=O)O` [compound A, (R)-2-[3-[[N-(benzoxazol-2-yl)-N-3-(4-methoxyphenoxy)propyl]aminomethyl]phenoxy]butyric acid]: the LDL-C in plasma result (0.3 mg/kg orally once per day for two weeks) is reported as “a clear influence on LDL-C was not observed”.
Take `CCN(C[C@H]1CC[C@H](CC(=O)O)CC1)c1ccc(C(F)(F)F)cc1CN(c1ncc(OCCS(C)(=O)=O)cn1)[C@@H](C)c1cc(C(F)(F)F)cc(C(F)(F)F)c1` [compound B, (S)-trans-{4-[({2-[({1-[3,5-bis(trifluoromethyl)phenyl]ethyl}{5-[2-(methylsulfonyl)ethoxy]pyrimidin-2-yl}amino)methyl]-4-(trifluoromethyl)phenyl}(ethyl)amino)methyl]cyclohexyl} acetic acid]: the LDL-C in plasma result under setting [1] is “a clear influence on LDL-C was not observed”.
In the case of `COc1cc(F)c(C(C)C)cc1-c1ccc(C(F)(F)F)cc1CN1C(=O)O[C@H](c2cc(C(F)(F)F)cc(C(F)(F)F)c2)[C@@H]1C` [compound C, [4S,5R]-5-[3,5-bis(trifluoromethyl)phenyl]-3-{[4′-fluoro-2′-methoxy-5′-(propan-2-yl)-4-(trifluoromethyl)[1,1′-biphenyl]-2-yl]methyl}-4-methyl-1,3-oxazolidin-2-one, reference compound], the LDL-C in plasma result under setting [1] is given as “a clear influence on LDL-C was not observed”.
